From US10183062B2, “Treatment for cancer” (The University of Nottingham, priority 2013, dated 2019)
Like-named read-outs stand apart in the source and are kept apart here.

Columns and labels:
[1] = cited from earlier work
[2] = test system: BliNTR, NTR from Bacillus licheniformis; settings: Emptage et al., 2009, cited from earlier work
[3] = test system: E. coli NfsA nitroreductase; settings: Vass et al., 2009, cited from earlier work; for Km: read-out: Km^CB1954
[4] = test system: E. coli NfnB nitroreductase, wild type; settings: Knox et al., 1992, cited from earlier work
[5] = molecular target: NmeNTR, Neisseria meningitidis MC58 nitroreductase (NfnB homolog, Q9K022), wild type, SEQ ID NO: 1 (Neisseria meningitidis, UniProt Q9K022); assay: CB1954 nitroreductase activity, HPLC, purified His-tagged NmeNTR; type: biochemical; settings: CB1954, cofactor NADH; 37° C., pH 7.0
Description: Genes encoding homologs of E. coli NfnB and Bacillus amyloliquefaciens YwrO from several bacteria were cloned into an E. coli expression vector for screening (see Methods below). These were the NfnB homolog from Neisseria meningitidis MC58 (‘NmeNTR’, accession number Q9K022), the NfnB homolog from Haemophilus somnus 129PT (‘HsoNTR’, accession number ZP_00122352.1), the NfnB homolog from Burkholderia fungorum LB400 (‘BfuNTR’, accession number ZP_00029570.1), the YwrO homolog from Vibrio cholerae (‘VchYwrO’, accession number Q9KNX3), the YwrO homolog from Rhodobacter sphaeroides (‘RspYwrO’, accession number ZP_00007082.1), and two YwrO homologs from Pseudomonas aeruginosa (‘PaeYwrO1’, accession number Q9HUJ0; and ‘PaeYwrO2’, accession number Q9I4B3).
For determination of CB1954 nitroreductase kinetic parameters, six-histidine affinity-tagged enzymes were purified from cell lysates purified using a Novagen His-Bind kit in accordance with the manufacturer's instructions.
CB1954 nitroreductase activity was determined essentially as described by Anlezark (6). Reaction mixtures containing 500 μM NADH or NADPH and a small quantity of enzyme (either crude lysate or purified enzyme) were assembled in pre-warmed (to 37° C.) 100 mM sodium phosphate buffer (pH 7.0), and started with the addition of 100 μM CB1954 and prompt mixing.
To determine initial reaction rates during preliminary screening of CB1954 nitroreductase candidates, aliquots of the reaction mixtures taken at various times were injected into a Partisphere SCX (100×4.7 mm) HPLC column and eluted isocratically at 2 ml/min with 130 mM NaH2PO4 (pH 5.0). Eluates were continuously monitored at 260 nm and 325 nm, and the absorbance spectra of eluting components recorded using a photodiode array detector. Peaks were identified with reference to standards and/or by their known absorbance spectra (7) and anticipated column retention times as appropriate. Rates were determined based on the decrease in the area under the CB1954 peak over time, normalised to the known starting concentration of 100 μM using the peak from the zero timepoint sample.
To determine initial reaction rates and CB1954 nitroreduction products in later experiments with purified proteins, peaks were identified as before, and rates were determined based on the increase in the area under the 4-hydroxylamine derivative peak over time, normalised using enzymatically-synthesised 4-hydroxylamine standards.
NmeNTR and HsoNTR were each affinity-tagged, over-expressed, purified, and the CB1954 nitroreductase activities of the purified proteins characterized using the HPLC assay. The reaction products and kinetic parameters of these enzymes with respect to CB1954 and NADH were determined (Table 1). […] Moreover, the kinetic parameters of HsoNTR and NmeNTR differ dramatically from those of E. coli NfnB and other published enzymes (Table 1). […] NmeNTR would therefore approach saturation with CB1954 in a therapeutic regime using the maximum clinically-recommended dose, so the prodrug would be efficiently activated and high levels of tumour-specific cytotoxicity achieved.

[6] = test system: Vibrio fischeri FRase I variant F124W; settings: Swe et al., 2012, cited from earlier work

## NC(=O)c1cc(N2CC2)c([N+](=O)[O-])cc1[N+](=O)[O-] [CB1954, 5-(aziridin-1-yl)-2,4-dinitrobenzamide]
[1]; in vivo
  maximum concentration which can be safely achieved in patient serum: 6.3 µM
[1]; safe doses
  peak concentrations in patient sera: 1 to 10 µM
[2]; CB1954
  Kcat: 6.4 S^−1
[2]; read-out: Km^CB1954
  Km: 30 µM
[3]; CB1954, cofactor NADH
  Kcat: 2.60 (NADH) S^−1
[3]; CB1954, cofactor NADPH
  Kcat: 20.9 (NADPH) S^−1
[3]; cofactor NADH
  Km: 18 µM
[3]; cofactor NADPH
  Km: 140 µM
[4]; CB1954
  Kcat: 6 S^−1
[4]; read-out: Km^CB1954
  Km: 862 µM
[5]
  Kcat: 4.04 (NADH) S^−1
[6]; CB1954
  Kcat: 26.6 S^−1
[6]; read-out: Km^CB1954
  Km: 259 µM
